Reference: patent publication US20230380427A1 (priority 2020, published 2023)
Read-outs that look alike come from different tables or passages of the source. Marks after values point to notes of the source that are not given here.

Experiments:
F. graminearum [1] = type: in vivo, Fusarium graminearum; conditions: wheat Capo, Lennox, Trappe, Kronjet, ear treated, FHB assessed 21 days after anthesis, versus untreated control
F. graminearum [2] = type: in vivo, Fusarium graminearum; conditions: wheat Trappe, ear treated, versus untreated half of plot
F. graminearum [3] = type: in vivo, Fusarium graminearum; conditions: wheat Capo; versus control
Plasmopara viticola = assay: Grapevine leaf disc assay (downy mildew, Peronospora); type: in vivo; conditions: grapevine leaf discs, 5 days at 23° C.; diseased disk area versus control
Experimental: Exemplary tests for reduction of Peronospora symptoms were carried out on grapevine leaf discs as follows. Ten leaf discs were first inoculated with prototypes for 20 min and then treated with a spore suspension (20000 sporangia/ml) of the fungus until zoospores were released from the sporangia. Afterwards, leaf disks were placed on water agar plates and incubated for 5 days at 23° C. (16 h light/8 h darkness). Consequently, disease severity was calculated by measurement of the percentage of diseased disk area. Control treatments were included by either using water or by application of the copper-based, commercially available plant protection product Cuprozin.

Sodium silicium oxide [Prototype W4] was tested, and the “Reduction of Symptoms (Disease incidence %)” value (F. graminearum [1]; listed as Silicium) was “no influence” and the “Reduction of Symptoms (Disease incidence %)” value (F. graminearum [1]; listed as W4) was “ns”.
With `O=C([O-])[O-].[Ca+2]` [Prototype W25, Calcium carbonate from natural resources] the “Reduction of Symptoms (Disease incidence %)” value (F. graminearum [2]; listed as Calcium carbonate) was 13% and the “Reduction of Symptoms (Disease incidence %)” value (F. graminearum [2]; listed as W25) was 13* %.
For `[Cl-].[Cl-].[Mg+2]` [Prototype W3, Magnesium chloride], the “Reduction of Symptoms (Disease incidence %)” value (F. graminearum [1]; listed as W3) was “ns” and the “Reduction of Symptoms (Disease incidence %)” value (F. graminearum [1]; listed as magnesium) was “no influence”.
With `[Ca+2].[Cl-].[Cl-]` [Prototype W2, Calcium chloride] the “Reduction of Symptoms (Disease incidence %)” value (F. graminearum [1]) was 29%.
With `O=C([O-])[O-].[Ca+2]` [Prototype W24, Calcium carbonate from natural resources] the “Reduction of Symptoms (%) Disease incidence %” value (F. graminearum [3]) was “ns”, the “Reduction of Symptoms (%) Disease intensity %” value (F. graminearum [3]) was “no significant effect and ns” and the “Reduction of Symptoms (%) Disease severity %” value (F. graminearum [3]) was “ns”.
In the case of `[Ca+2].[Cl-].[Cl-]` [Prototype G1, Calcium chloride], the “Reduction of Symptoms (Disease Severity %)” value (Plasmopara viticola) was 50.9** %.
